In publication PMC7730205, “Different Sensitivity of Control and MICU1- and MICU2-Ablated Trypanosoma cruzi Mitochondrial Calcium Uniporter Complex to Ruthenium-Based Inhibitors” (International Journal of Molecular Sciences, 2020):

What was measured:
T. cruzi trypomastigotes [1] = assay: In vitro infection assay of Vero cells by trypomastigotes; format: cell-based, Trypanosoma cruzi; conditions: 30 min preincubation with 1 µM antimycin A; 4 h on Vero cells
Description: (§1) We analyzed the growth rate of epimastigotes in LIT medium at different Ru265 concentrations (1 µM, 5 µM, and 10 µM). […] The presence of metabolic inhibitors affects attachment and invasion of T. cruzi trypomastigotes to mammalian cells since these are an active process which depends on the expenditure of parasite energy. Preincubation of trypomastigotes for 30 min with antimycin A, which blocks electron transport from cytochrome b to c1, decreased the ability of trypomastigotes to attach to glutaraldehyde-fixed cells (Figure 4b) and invade intact host cells (Figure 4c).
(§2) Figure 4 Effect of Ru265 on Trypanosoma cruzi. (a) Effect of Ru265 on epimastigote growth. […] After 1 h of incubation at 37 °C, the cells were washed, and the number of attached trypomastigotes was counted. […] After 4 h of incubation at 37 °C, the cells were washed, and the number of intracellular parasites was counted. […] (f) Routine respiration (initial oxygen flux values), leak respiration after the addition of 0.5 µg/mL of oligomycin A, and electron transfer system (ETS) capacity after the sequential additions of FCCP (0.2 μM each) were measured for each condition. […] (g) Representative experiment showing mitochondrial Ca^2+ uptake by intact epimastigotes in relative fluorescence units (RFU). […] (h) Changes in fluorescence (before and after ionomycin addition) from three experiments like that shown in panel (g). […]

T. cruzi trypomastigotes [2] = assay: Trypomastigote attachment assay to glutaraldehyde-fixed Vero cells; format: cell-based, Trypanosoma cruzi; conditions: 30 min preincubation with 1 µM antimycin A; 1 h at 37 °C on fixed Vero cells
Description: as §1, §2

[3] = target: T. cruzi mitochondrial Ca2+ uniporter complex, TcMICU2-KO cells (Trypanosoma cruzi, UniProt Q4DHJ5+Q4DL37+Q4DYG3); assay: Ca2+ uptake by digitonin-permeabilized TcMICU2-KO epimastigotes (calcium green-5N); format: cell-based; conditions: ~30 µM Ca2+, 5 mM succinate, initial rate, read-out: IC50, inhibition of mitochondrial Ca2+ uptake
Sequence of T. cruzi mitochondrial Ca2+ uniporter complex, TcMICU2-KO cells (Q4DL37 entry or part of it): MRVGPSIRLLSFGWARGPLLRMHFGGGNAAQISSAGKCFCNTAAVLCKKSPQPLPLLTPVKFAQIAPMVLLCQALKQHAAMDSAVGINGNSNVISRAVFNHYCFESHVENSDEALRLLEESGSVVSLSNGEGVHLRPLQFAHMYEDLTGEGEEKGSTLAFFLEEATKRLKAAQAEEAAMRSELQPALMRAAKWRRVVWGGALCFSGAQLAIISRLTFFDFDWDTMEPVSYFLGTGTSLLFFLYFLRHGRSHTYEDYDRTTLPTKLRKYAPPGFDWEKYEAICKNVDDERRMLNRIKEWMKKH
Sequence of T. cruzi mitochondrial Ca2+ uniporter complex, TcMICU2-KO cells (Q4DYG3 entry or part of it): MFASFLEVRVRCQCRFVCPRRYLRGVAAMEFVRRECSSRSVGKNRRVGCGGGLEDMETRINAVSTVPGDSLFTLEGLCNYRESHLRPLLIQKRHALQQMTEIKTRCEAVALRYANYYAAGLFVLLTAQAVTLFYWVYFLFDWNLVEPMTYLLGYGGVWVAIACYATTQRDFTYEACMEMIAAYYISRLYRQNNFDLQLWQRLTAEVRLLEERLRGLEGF
Sequence of T. cruzi mitochondrial Ca2+ uniporter complex, TcMICU2-KO cells (Q4DHJ5 entry or part of it): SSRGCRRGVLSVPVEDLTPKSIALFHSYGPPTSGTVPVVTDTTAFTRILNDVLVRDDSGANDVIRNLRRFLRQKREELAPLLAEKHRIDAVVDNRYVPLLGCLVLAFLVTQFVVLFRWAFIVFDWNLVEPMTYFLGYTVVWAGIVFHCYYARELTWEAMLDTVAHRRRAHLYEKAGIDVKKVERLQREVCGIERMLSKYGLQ
From the text: (§3) We first tested the effect of different concentrations of inhibitors on Ca^2+ uptake, as measured by the change in fluorescence of calcium green 5-N, by digitonin-permeabilized control and TcMICU1-KO and TcMICU2-KO epimastigotes. These KO cells were obtained by the CRISPR/Cas9 method in previous work, and we used cells transfected with a scrambled sgRNA as control.
(§4) Figure 2 Inhibition of mitochondrial Ca^2+ uptake by ruthenium-based compounds. Representative traces of Ca^2+ uptake by digitonin-permeabilized epimastigotes in control (a), TcMICU1-KO (b), and TcMICU2-KO (c) epimastigotes in the presence of different Ru360 concentrations. C, control cells; TcMICU1-KO cells; and TcMICU2-KO cells. The reaction was started after adding 50 μM digitonin (Dig) in the presence of ~30 μM CaCl2, 5 mM succinate, and 0.5 μM calcium green-5N, in the presence or absence of Ru360. Where indicated, 4 μM FCCP was added. (d–f) Dose–response inhibition of the initial rate of mitochondrial Ca^2+ uptake in control (C), TcMICU1-KO (1-KO), and TcMICU2-KO (2-KO) cells treated with RuRed (d), Ru360 (e) or Ru265 (f).
(§5) When dose–response effects were measured in TcMICU1-KO and TcMICU2-KO cells we noticed that these cells were, in general, more sensitive to the inhibitors.
(§6) Cells were collected by centrifugation at 1000× g for 7 min and washed twice with buffer A with glucose (BAG: 116 mM NaCl, 5.4 mM KCl, 0.8 mM MgSO4, 5.5 mM D-glucose, and 50 mM HEPES, pH 7.0). […] Mitochondrial Ca^2+ uptake was initiated by the addition of ~30 μM of free calcium, which was calculated using the software Maxchelator Calculator v1.2 (https://somapp.ucdmc.ucdavis.edu/pharmacology/bers/maxchelator/CaEGTA-NIST.htm). […] Fluorescence changes were monitored in an F-7000 fluorescence spectrophotometer (Hitachi, Dallas, TX, USA) with excitation at 506 nm and emission at 532 nm. […] Kd for Ca^2+ indicator probes in our conditions was determined, according to Chweih et al.. Uptake rate inhibitions were calculated as the first derivative of the absolute values of the slope by using the SLOPE Excel function for 200 points (300 to 500 s). […]

[4] = target: T. cruzi mitochondrial Ca2+ uniporter complex (MCUC), control cells (Trypanosoma cruzi, UniProt Q4DHJ5+Q4DL37+Q4DYG3); assay: Ca2+ uptake by digitonin-permeabilized control epimastigotes (calcium green-5N); format: cell-based; conditions: control (scrambled sgRNA) epimastigotes, ~30 µM Ca2+, 5 mM succinate, initial rate, read-out: IC50, inhibition of mitochondrial Ca2+ uptake
Sequence of T. cruzi mitochondrial Ca2+ uniporter complex (MCUC), control cells (Q4DL37 entry or part of it): as the sequence (Q4DL37 entry or part of it) above
Sequence of T. cruzi mitochondrial Ca2+ uniporter complex (MCUC), control cells (Q4DHJ5 entry or part of it): as the sequence (Q4DHJ5 entry or part of it) above
Sequence of T. cruzi mitochondrial Ca2+ uniporter complex (MCUC), control cells (Q4DYG3 entry or part of it): as the sequence (Q4DYG3 entry or part of it) above
Sequence of T. cruzi mitochondrial Ca2+ uniporter complex (MCUC), control cells (Q4E667 entry or part of it, further chain): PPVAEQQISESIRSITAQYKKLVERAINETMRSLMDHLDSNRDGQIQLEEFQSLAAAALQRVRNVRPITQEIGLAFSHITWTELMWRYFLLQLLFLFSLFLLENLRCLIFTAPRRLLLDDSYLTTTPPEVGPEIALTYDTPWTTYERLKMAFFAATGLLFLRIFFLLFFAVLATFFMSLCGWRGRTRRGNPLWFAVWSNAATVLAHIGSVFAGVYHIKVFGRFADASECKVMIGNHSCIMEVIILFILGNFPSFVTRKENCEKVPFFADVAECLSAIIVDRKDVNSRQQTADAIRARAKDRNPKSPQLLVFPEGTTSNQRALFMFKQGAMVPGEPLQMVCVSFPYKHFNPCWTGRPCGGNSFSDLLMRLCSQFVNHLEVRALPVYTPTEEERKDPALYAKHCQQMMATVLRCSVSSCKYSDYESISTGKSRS
From the text: as §3
As is shown in Figure 2a, extramitochondrial Ca^2+ was sequestered in the mitochondria of control cells and released by the uncoupler FCCP.
as §4, §6

[5] = target: T. cruzi mitochondrial Ca2+ uniporter complex, TcMICU1-KO cells (Trypanosoma cruzi, UniProt Q4DHJ5+Q4DL37+Q4DYG3); assay: Ca2+ uptake by digitonin-permeabilized TcMICU1-KO epimastigotes (calcium green-5N); format: cell-based; conditions: ~30 µM Ca2+, 5 mM succinate, initial rate, read-out: IC50, inhibition of mitochondrial Ca2+ uptake
Sequence of T. cruzi mitochondrial Ca2+ uniporter complex, TcMICU1-KO cells (Q4DHJ5 entry or part of it): as the sequence (Q4DHJ5 entry or part of it) above
Sequence of T. cruzi mitochondrial Ca2+ uniporter complex, TcMICU1-KO cells (Q4DL37 entry or part of it): as the sequence (Q4DL37 entry or part of it) above
Sequence of T. cruzi mitochondrial Ca2+ uniporter complex, TcMICU1-KO cells (Q4DYG3 entry or part of it): as the sequence (Q4DYG3 entry or part of it) above
From the text: as §3, §4, §5, §6

mammalian mitochondria = conditions: cited from earlier work
[6] = system: T. cruzi epimastigotes (control, TcMICU1-KO, TcMICU2-KO); assay: Mitochondrial membrane potential of digitonin-permeabilized epimastigotes (safranine O); format: cell-based, Trypanosoma cruzi; conditions: TcMICU1-KO or TcMICU2-KO cells, succinate
From the text: To determine whether the defect in mitochondrial Ca^2+ uptake in the presence of inhibitors was not secondary to mitochondrial membrane depolarization, we measured the mitochondrial membrane potential (Δψm) of digitonin-permeabilized epimastigotes using safranine O in the presence of succinate as mitochondrial substrate.
Figure 3 Effect of inhibitors on the mitochondrial membrane potential of epimastigotes. Changes in mitochondrial membrane potential (Δψm) of digitonin-permeabilized epimastigotes as detected by changes in safranine O fluorescence in control (a), TcMICU1-KO (b), and TcMICU2-KO (c) epimastigotes in the absence or presence of inhibitors. Cells (5 × 10^7) were added to the reaction buffer (2 mL) containing 0.2% BSA, 5 mM succinate, 50 μM EGTA and 5 μM safranine O. The reaction was started with 50 μM digitonin (DIG) in the presence or absence of the inhibitor, and 250 μM ADP, 1.5 μM carboxyatractyloside (CAT), 50 μM CaCl2 (Ca^2+), 200 μM EGTA, and 4 μM FCCP were added when indicated. A decrease in fluorescence after permeabilization with digitonin indicated the accumulation of the dye in energized mitochondria. The addition of ADP produced a small dissipation of membrane potential, indicating ADP phosphorylation. Δψm returned to its initial level after the addition of the adenine nucleotide translocator inhibitor CAT. The addition of FCCP collapsed the membrane potential. (d) Changes in safranine O fluorescence after digitonin addition (between 30 and 60 s) in control (C), TcMICU1-KO and TcMICU2-KO epimastigotes. […] Changes in safranine O fluorescence in control (C) (e), TcMICU1-KO (1-KO) (f), and TcMICU2-KO (2-KO) (g) epimastigotes after addition of ADP from three experiments like that shown in panels (a–c).
Estimation of mitochondrial membrane potential in situ was done spectrofluorometrically using the indicator dye safranine O, as described previously. […] Fluorescence changes were monitored using the Hitachi F-7000 spectrofluorometer (excitation of 495 nm and emission of 586 nm).

With CCCCCC[C@H]1C(=O)O[C@H](C)[C@H](NC(=O)c2cccc(NC=O)c2O)C(=O)O[C@@H](C)[C@@H]1OC(=O)CC(C)C [antimycin A] the “Ability of trypomastigotes to invade intact host cells” value (T. cruzi trypomastigotes [1]) was “decreased” and the “Ability of trypomastigotes to attach to glutaraldehyde-fixed cells” value (T. cruzi trypomastigotes [2]) was “decreased”.
N.N.N.N.N.N.N.N.[Cl][Ru+3].[NH]=[Ru][Cl] [Ru265] gave an IC50 [3] of 14.1 ± 1.3 nM, an IC50 [4] of 26.3 ± 2 nM and an IC50 [5] of 12.1 ± 2.3 nM.
For N.N.N.N.N.N.N.N.N.N.N.N.N.N.[Cl-].[Cl-].[Cl-].[Cl-].[Cl-].[Cl-].[O-2].[O-2].[Ru+3].[Ru+3].[Ru+4] [RuRed, ruthenium red], the IC50 [3] is given as 11.9 ± 1.4 nM, the “Effective concentration range in mammalian mitochondria” value (mammalian mitochondria) is given as “effective in the submicromolar range” and the IC50 [4] is given as 117 ± 16.9 nM. The IC50 [5] was 148 ± 21.7 nM and the “Effect on mitochondrial membrane potential (Δψm) and response to ADP” value [6] was “did not significantly affect”.
Ru360 showed an IC50 [3] of 63.6 ± 6.9 nM, an IC50 [4] of 186 ± 15.2 nM and an IC50 [5] of 46.7 ± 2.7 nM. The “Effect on mitochondrial membrane potential (Δψm) and response to ADP” value [6] was “did not significantly affect”.
